Here are results for 3 molecules from US8722849B2, “Polypeptides” (Novo Nordisk A/S, priority 2011, dated 2014).

Series [1] can be described thus: Assay (IV) determination of solubility. Format: physicochemical. A digest of the protocol: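 Solubility was profiled across pH 3.0–8.0 after 18 hours at room temperature: a ~500 nmol/ml aqueous polypeptide solution was diluted 1:1 into 100 mM glycylglycine or bistrispropane buffers. After centrifugation, HPLC gave the dissolved concentration.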
The target of series [2] is T1, human amylin receptor (amylin 3(a) receptor: human calcitonin receptor + RAMP-3) (Homo sapiens, UniProt O60896+P30988).
T1 construct: expressed in transfected cells; host or cells: BHK570
T1 sequence (P30988 25-474): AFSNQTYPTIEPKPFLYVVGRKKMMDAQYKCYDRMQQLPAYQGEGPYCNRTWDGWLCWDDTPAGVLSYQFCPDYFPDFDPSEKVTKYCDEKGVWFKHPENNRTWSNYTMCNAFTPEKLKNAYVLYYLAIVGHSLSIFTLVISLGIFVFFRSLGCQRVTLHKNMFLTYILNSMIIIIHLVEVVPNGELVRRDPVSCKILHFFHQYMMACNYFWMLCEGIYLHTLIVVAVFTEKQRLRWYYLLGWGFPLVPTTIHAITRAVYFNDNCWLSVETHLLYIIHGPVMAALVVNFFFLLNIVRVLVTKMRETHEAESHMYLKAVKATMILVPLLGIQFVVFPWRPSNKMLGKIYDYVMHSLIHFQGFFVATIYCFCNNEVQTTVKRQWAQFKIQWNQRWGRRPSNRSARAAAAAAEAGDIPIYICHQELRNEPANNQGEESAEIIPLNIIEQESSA
T1 sequence (O60896 24-148 partner): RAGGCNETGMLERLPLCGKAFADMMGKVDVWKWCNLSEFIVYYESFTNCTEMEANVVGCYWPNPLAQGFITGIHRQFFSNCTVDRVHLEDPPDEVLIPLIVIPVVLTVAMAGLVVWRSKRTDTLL
The series is described as follows: Assay (II)a functional CRE-luciferase assay, human amylin receptor. It counts as cell-based. Particulars: Table 2; BHK amylin 3(a)-receptor/CRE-luc cells.

Series [3] can be described thus: Assay (III) ThT fibrillation assay for physical stability. It counts as physicochemical. A digest of the protocol:
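Freshly prepared formulations, pH-adjusted, with 1 μM ThT; four or eight replicates incubated at 37 °C under 960 rpm orbital shaking. Fluorescence (ex 444/em 485 nm) read every 20 min; […]. Peptide concentration measured by RP-HPLC before and after the run.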

Series [4] addresses T2, human calcitonin receptor (Homo sapiens, UniProt P30988).
T2 construct: expressed in transfected cells; host or cells: BHK570
T2 sequence (P30988 25-474): T1 sequence (P30988 25-474)
Briefly: Assay (II)a functional CRE-luciferase assay, human calcitonin receptor. It counts as cell-based. The following applies: Table 7; human calcitonin (CTa) receptor.

The mark [5] stands for this setting: bistrispropane buffer, pH 6, pH 6.0, read-out: Solubility pH 6.0.
[6] abbreviates: bistrispropane buffer, pH 6.5, pH 6.5, read-out: Solubility pH 6.5.
Where [7] appears, read: bistrispropane buffer, pH 7, pH 7.0, 18 hours at room temperature, Table 3, read-out: Solubility pH 7.0.
The mark [8] stands for this setting: bistrispropane buffer, pH 7, pH 7.0, read-out: Solubility pH 7.0.
[9] abbreviates: bistrispropane buffer, pH 7.5, pH 7.5, read-out: Solubility pH 7.5.
[10] abbreviates: bistrispropane buffer, pH 8, pH 8.0, read-out: Solubility pH 8.0.
Setting [11] is: glycylglycine buffer, pH 3, pH 3.0, read-out: Solubility pH 3.0.
Setting [12] is: glycylglycine buffer, pH 4, pH 4.0, 18 hours at room temperature, Table 2, read-out: Solubility pH 4.0.
Where [13] appears, read: glycylglycine buffer, pH 4, pH 4.0, read-out: Solubility pH 4.0.
Where [14] appears, read: glycylglycine buffer, pH 5, pH 5.0, read-out: Solubility pH 5.0.

Values after ≈ are worked out from the molar mass of the structure shown. Where two headings read alike, the source gives them in different places. Starred links: 1 amine or outer side, 2 acyl side, 3 side chain; linkers in the order of their positions; H or OH if unused. Positions of bridges follow the written chain, without caps; N, C: chain ends. Residues, ends and D or L forms follow the SMILES beside them. *: point of attachment. C20 diacid = O=C(O)CCCCCCCCCCCCCCCCCCC(=O)*; C18 diacid = O=C(O)CCCCCCCCCCCCCCCCC(=O)*; γGlu = O=C(O)[C@H](CCC(=O)[*:2])N[*:1]

As usually defined, the solubility is the dissolved amount per volume that the medium holds. For orientation: EC50 means the concentration that produces a half-maximal response. Regarding `CC[C@H](C)[C@H](NC(=O)[C@@H]1CCCN1C(=O)CNC(=O)[C@H](Cc1ccccc1)NC(=O)[C@H](CC(N)=O)NC(=O)[C@H](CC(N)=O)NC(=O)[C@H](CO)NC(=O)[C@H](CO)NC(=O)[C@H](Cc1c[nH]cn1)NC(=O)[C@H](Cc1c[nH]cn1)NC(=O)[C@H](CC(C)C)NC(=O)[C@H](Cc1ccccc1)NC(=O)[C@H](CCC(=O)O)NC(=O)[C@H](C)NC(=O)[C@H](CC(C)C)NC(=O)[C@H](CCCNC(=N)N)NC(=O)[C@H](CCC(N)=O)NC(=O)[C@@H](NC(=O)[C@H](C)NC(=O)[C@@H]1CSSC[C@H](NC(=O)[C@H](Cc2c[nH]cn2)NC(=O)[C@H](Cc2c[nH]cn2)NC(=O)[C@H](Cc2c[nH]cn2)NC(=O)CC[C@H](NC(=O)CCCCCCCCCCCCCCCCCCC(=O)O)C(=O)O)C(=O)N[C@@H](CC(N)=O)C(=O)N[C@@H]([C@@H](C)O)C(=O)N[C@@H](C)C(=O)N[C@@H]([C@@H](C)O)C(=O)N1)[C@@H](C)O)C(=O)N[C@@H](CC(C)C)C(=O)N1CCC[C@H]1C(=O)N[C@@H](Cc1c[nH]cn1)C(=O)N[C@H](C(=O)N[C@@H](CC(N)=O)C(=O)N[C@H](C(=O)NCC(=O)N[C@@H](CO)C(=O)N[C@@H](Cc1c[nH]cn1)C(=O)N[C@H](C(=O)N[C@@H](Cc1ccc(O)cc1)C(N)=O)[C@@H](C)O)C(C)C)[C@@H](C)O` [Example 34, N-alpha-[(S)-4-Carboxy-4-(19-carboxynonadecanoylamino)butyryl]-His-His-[His1,Glu14,His17,His29,His35]-pramlintide] ({C20 diacid-γGlu}-HHHCNTATCATQRLAEFLHHSSNNFGPILPHTNVGSHTY-NH2; disulfide 4-9 (inferred)), the solubility at 18 h is 0 µM in series [1] (18 h, pH 7, read-out: Solubility pH 7.0); 0 µM in series [1] (18 h, pH 7.5, read-out: Solubility pH 7.5); more than 200 µM in series [1] (pH 3, Solubility pH 3.0); more than 200 µM in series [1] (pH 4, Solubility pH 4.0); more than 200 µM in series [1] (pH 4, Solubility pH 4.0 (μM)); more than 200 µM in series [1] (pH 5, Solubility pH 5.0). Further, the solubility at 18 h in series [1] (pH 6, Solubility pH 6.0) is more than 200 µM; in series [1] (pH 6.5, Solubility pH 6.5), 4 µM (≈ 19.2 µg/mL); in series [1] (pH 8, Solubility pH 8.0) it was 13 µM (≈ 62.4 µg/mL). For the same molecule, the EC50 worked out at 272 pM in series [2] and 198 pM in series [4]. Further, in series [3] (ThT fibrillation assay), the “ThT pH 4.0 lag time (h)” value was determined as 13 h.

As for `CC[C@H](C)[C@H](NC(=O)[C@@H]1CCCN1C(=O)CNC(=O)[C@H](Cc1ccccc1)NC(=O)[C@H](CO)NC(=O)[C@H](CO)NC(=O)[C@H](CO)NC(=O)[C@H](CO)NC(=O)[C@H](CCCNC(=N)N)NC(=O)[C@@H](NC(=O)[C@H](CC(C)C)NC(=O)[C@H](Cc1ccccc1)NC(=O)[C@H](CCC(=O)O)NC(=O)[C@H](C)NC(=O)[C@H](CC(C)C)NC(=O)[C@H](CCCNC(=N)N)NC(=O)[C@H](CCC(N)=O)NC(=O)[C@@H](NC(=O)[C@H](C)NC(=O)[C@@H]1CSSC[C@H](NC(=O)[C@H](CCCCN)NC(=O)CC[C@H](NC(=O)CCCCCCCCCCCCCCCCCCC(=O)O)C(=O)O)C(=O)N[C@@H](CC(N)=O)C(=O)N[C@@H]([C@@H](C)O)C(=O)N[C@@H](C)C(=O)N[C@@H]([C@@H](C)O)C(=O)N1)[C@@H](C)O)C(C)C)C(=O)N[C@@H](CC(C)C)C(=O)N[C@@H](CO)C(=O)N[C@@H](CO)C(=O)N[C@H](C(=O)N[C@@H](CC(=O)O)C(=O)N[C@H](C(=O)NCC(=O)N[C@@H](CO)C(=O)N[C@@H](CC(=O)O)C(=O)N[C@H](C(=O)N1CCC[C@H]1C(N)=O)[C@@H](C)O)C(C)C)[C@@H](C)O` [Example 170, N-alpha-[(S)-4-Carboxy-4-(19-carboxynonadecanoylamino)butyryl]-[Glu14,Arg18,Ser21,Ser22,Ser28,Ser29,Asp31,Asp35,Pro37]-pramlintide] ({C20 diacid-γGlu}-KCNTATCATQRLAEFLVRSSSSFGPILSSTDVGSDTP-NH2; disulfide 2-7 (inferred)), the solubility at 18 h in series [1] (setting [5]) was more than 200 µM; in series [1] (setting [6]), more than 200 µM; in series [1] (setting [7]), more than 200 µM; in series [1] (bistrispropane buffer, pH 7, pH 7.0, Table 8, read-out: Solubility pH 7.0), more than 200 µM; in series [1] (bistrispropane buffer, pH 7, pH 7.0, Table 9, read-out: Solubility pH 7.0) it was more than 200 µM; in series [1] (setting [8]), more than 200 µM. Further, the solubility at 18 h in series [1] (bistrispropane buffer, pH 7.5, pH 7.5, Table 9, read-out: Solubility pH 7.5) was more than 200 µM; in series [1] (setting [9]), more than 200 µM; in series [1] (setting [10]) it was 188 µM (≈ 808 µg/mL); in series [1] (setting [11]), more than 200 µM; in series [1] (setting [12]), more than 200 µM; in series [1] (setting [13]), more than 200 µM. In addition, the solubility at 18 h in series [1] (setting [14]) was found to be 186 µM (≈ 800 µg/mL). Also, the concentration giving a half-maximal response (EC50) stood at 90 pM in series [2] and 76 pM in series [4]. In addition, the “ThT pH 4.0 lag time” value in series [3] (Table 8), in series [3] (Table 9) and in series [3] (ThT fibrillation assay) was more than 45 h throughout. Besides, the “ThT pH 4.0 lag time (h)” value in series [3] (ThT fibrillation assay) is recorded as more than 45 h.

Regarding `CC[C@H](C)[C@H](NC(=O)[C@@H]1CCCN1C(=O)CNC(=O)[C@H](Cc1ccccc1)NC(=O)[C@H](CC(N)=O)NC(=O)[C@H](CC(N)=O)NC(=O)[C@H](CO)NC(=O)[C@H](CO)NC(=O)[C@H](Cc1c[nH]cn1)NC(=O)[C@H](Cc1c[nH]cn1)NC(=O)[C@H](CC(C)C)NC(=O)[C@H](Cc1ccccc1)NC(=O)[C@H](CCC(=O)O)NC(=O)[C@H](C)NC(=O)[C@H](CC(C)C)NC(=O)[C@H](CCCNC(=N)N)NC(=O)[C@H](CCC(N)=O)NC(=O)[C@@H](NC(=O)[C@H](C)NC(=O)[C@@H]1CSSC[C@H](NC(=O)CC[C@H](NC(=O)CC[C@H](NC(=O)CCCCCCCCCCCCCCCCC(=O)O)C(=O)O)C(=O)O)C(=O)N[C@@H](CC(N)=O)C(=O)N[C@@H]([C@@H](C)O)C(=O)N[C@@H](C)C(=O)N[C@@H]([C@@H](C)O)C(=O)N1)[C@@H](C)O)C(=O)N[C@@H](CC(C)C)C(=O)N1CCC[C@H]1C(=O)N1CCC[C@H]1C(=O)N[C@H](C(=O)N[C@@H](CC(N)=O)C(=O)N[C@H](C(=O)NCC(=O)N[C@@H](CO)C(=O)N[C@@H](CC(N)=O)C(=O)N[C@H](C(=O)N[C@@H](Cc1ccc(O)cc1)C(N)=O)[C@@H](C)O)C(C)C)[C@@H](C)O` [Example 49, N-alpha-{(S)-4-Carboxy-4-[(S)-4-Carboxy-4-(17-carboxyheptadecanoylamino)butyrylamino]butyryl}-[des1,Glu14,His17]-pramlintide] ({C18 diacid-γGlu-γGlu}-CNTATCATQRLAEFLHHSSNNFGPILPPTNVGSNTY-NH2; disulfide 1-6 (inferred)), the solubility at 18 h in series [1] (setting [5]), in series [1] (setting [6]), in series [1] (setting [7]), in series [1] (setting [8]), in series [1] (setting [9]) and in series [1] (setting [10]) was more than 200 µM in each case. The solubility at 18 h is more than 200 µM in series [1] (setting [11]), more than 200 µM in series [1] (setting [12]), more than 200 µM in series [1] (setting [13]) and 27 µM (≈ 120 µg/mL) in series [1] (setting [14]). Further, the EC50 in series [2] was found to be 151 pM; in series [4], 527 pM. For the same molecule, the “ThT pH 4.0 lag time (h)” value in series [3] (ThT fibrillation assay) was 0 h.
